Measured values taken from article PMC11003488 (Journal of Enzyme Inhibition and Medicinal Chemistry, 2023).

Key:
UACC-257 = experiment: NCI-60 SRB growth inhibition, one-dose and five-dose; format: cell-based; conditions: Homo sapiens; for GI50: UACC-257; for inhibition at 10 µM: UACC-257, read-out: percent growth inhibition
ACHN = experiment: as above; format: cell-based; conditions: Homo sapiens; for inhibition at 10 µM: read-out: percent growth inhibition
SNB-75 = experiment: as above; format: cell-based; conditions: Homo sapiens; for GI50: SNB-75; for inhibition at 10 µM: SNB-75, read-out: percent growth inhibition
MDA-MB-231/ATCC = experiment: as above; format: cell-based; conditions: Homo sapiens; for GI50: MDA-MB-231; for inhibition at 10 µM: MDA-MB-231, read-out: percent growth inhibition
Colon cancer cell lines = experiment: NCI-60 SRB growth inhibition, subpanel; format: cell-based, human; conditions: Homo sapiens, read-out: GI50 MG-MID
HT29 = experiment: NCI-60 SRB growth inhibition, one-dose and five-dose; format: cell-based; conditions: Homo sapiens; for GI50: HT-29; for inhibition at 10 µM: HT-29, read-out: percent growth inhibition
SF-295 = experiment: as above; format: cell-based; conditions: Homo sapiens; for GI50: SF-295; for inhibition at 10 µM: SF-295, read-out: percent growth inhibition
SK-OV-3 = experiment: as above; format: cell-based; conditions: Homo sapiens; for GI50: SK-OV-3; for inhibition at 10 µM: SK-OV-3, read-out: percent growth inhibition
NCI-H460 = experiment: as above; format: cell-based; conditions: Homo sapiens; for GI50: NCI-H460; for inhibition at 10 µM: NCI-H460, read-out: percent growth inhibition
NCI-H322M = experiment: as above; format: cell-based; conditions: Homo sapiens; for inhibition at 10 µM: read-out: percent growth inhibition
NCI/ADR-RES = experiment: as above; format: cell-based; conditions: Homo sapiens; for inhibition at 10 µM: read-out: percent growth inhibition
786-0 = experiment: as above; format: cell-based; conditions: Homo sapiens; for GI50: 786-0; for inhibition at 10 µM: 786-0, read-out: percent growth inhibition
NSCLC cell lines = experiment: NCI-60 SRB growth inhibition, subpanel; format: cell-based, human; conditions: Homo sapiens, read-out: GI50 MG-MID
[1] = test system: Prostate cancer cell lines; experiment: NCI-60 SRB growth inhibition, subpanel; format: cell-based, human; conditions: Homo sapiens, read-out: GI50 MG-MID
RPMI-8226 = experiment: NCI-60 SRB growth inhibition, one-dose and five-dose; format: cell-based; conditions: Homo sapiens; for GI50: RPMI-8226; for inhibition at 10 µM: RPMI-8226, read-out: percent growth inhibition
TK-10 = experiment: as above; format: cell-based; conditions: Homo sapiens; for GI50: TK-10; for inhibition at 10 µM: TK-10, read-out: percent growth inhibition
SN12C = experiment: as above; format: cell-based; conditions: Homo sapiens; for inhibition at 10 µM: read-out: percent growth inhibition
UO-31 = experiment: as above; format: cell-based; conditions: Homo sapiens; for GI50: UO-31; for inhibition at 10 µM: UO-31, read-out: percent growth inhibition
UACC-62 = experiment: as above; format: cell-based; conditions: Homo sapiens; for GI50: UACC-62; for inhibition at 10 µM: UACC-62, read-out: percent growth inhibition
Breast cancer cell lines = experiment: NCI-60 SRB growth inhibition, subpanel; format: cell-based, human; conditions: Homo sapiens, read-out: GI50 MG-MID
Melanoma cell lines = experiment: NCI-60 SRB growth inhibition, subpanel; format: cell-based, human; conditions: Homo sapiens, read-out: GI50 MG-MID
SW-620 = experiment: NCI-60 SRB growth inhibition, one-dose and five-dose; format: cell-based; conditions: Homo sapiens; for GI50: SW-620; for inhibition at 10 µM: SW-620, read-out: percent growth inhibition
[2] = Cytotoxicity towards normal fibroblasts, safety index; format: cell-based, human; conditions: human, WI-38 normal fibroblast cells
[3] = test system: WI-38 normal human fibroblast cells; experiment: as above; format: cell-based; conditions: WI-38 versus cancer cell lines
NCI-H23 = experiment: NCI-60 SRB growth inhibition, one-dose and five-dose; format: cell-based; conditions: Homo sapiens; for GI50: NCI-H23; for inhibition at 10 µM: NCI-H23, read-out: percent growth inhibition
[4] = test system: Ovarian cancer cell lines; experiment: NCI-60 SRB growth inhibition, subpanel; format: cell-based, human; conditions: Homo sapiens, read-out: GI50 MG-MID
CNS cancer cell lines = experiment: NCI-60 SRB growth inhibition, subpanel; format: cell-based, human; conditions: Homo sapiens, read-out: GI50 MG-MID
Human VEGFR-2 = Human VEGFR-2 (Homo sapiens, UniProt P35968); experiment: VEGFR-2 inhibition assay; format: biochemical
Chain of Human VEGFR-2 (P35968 20-1356): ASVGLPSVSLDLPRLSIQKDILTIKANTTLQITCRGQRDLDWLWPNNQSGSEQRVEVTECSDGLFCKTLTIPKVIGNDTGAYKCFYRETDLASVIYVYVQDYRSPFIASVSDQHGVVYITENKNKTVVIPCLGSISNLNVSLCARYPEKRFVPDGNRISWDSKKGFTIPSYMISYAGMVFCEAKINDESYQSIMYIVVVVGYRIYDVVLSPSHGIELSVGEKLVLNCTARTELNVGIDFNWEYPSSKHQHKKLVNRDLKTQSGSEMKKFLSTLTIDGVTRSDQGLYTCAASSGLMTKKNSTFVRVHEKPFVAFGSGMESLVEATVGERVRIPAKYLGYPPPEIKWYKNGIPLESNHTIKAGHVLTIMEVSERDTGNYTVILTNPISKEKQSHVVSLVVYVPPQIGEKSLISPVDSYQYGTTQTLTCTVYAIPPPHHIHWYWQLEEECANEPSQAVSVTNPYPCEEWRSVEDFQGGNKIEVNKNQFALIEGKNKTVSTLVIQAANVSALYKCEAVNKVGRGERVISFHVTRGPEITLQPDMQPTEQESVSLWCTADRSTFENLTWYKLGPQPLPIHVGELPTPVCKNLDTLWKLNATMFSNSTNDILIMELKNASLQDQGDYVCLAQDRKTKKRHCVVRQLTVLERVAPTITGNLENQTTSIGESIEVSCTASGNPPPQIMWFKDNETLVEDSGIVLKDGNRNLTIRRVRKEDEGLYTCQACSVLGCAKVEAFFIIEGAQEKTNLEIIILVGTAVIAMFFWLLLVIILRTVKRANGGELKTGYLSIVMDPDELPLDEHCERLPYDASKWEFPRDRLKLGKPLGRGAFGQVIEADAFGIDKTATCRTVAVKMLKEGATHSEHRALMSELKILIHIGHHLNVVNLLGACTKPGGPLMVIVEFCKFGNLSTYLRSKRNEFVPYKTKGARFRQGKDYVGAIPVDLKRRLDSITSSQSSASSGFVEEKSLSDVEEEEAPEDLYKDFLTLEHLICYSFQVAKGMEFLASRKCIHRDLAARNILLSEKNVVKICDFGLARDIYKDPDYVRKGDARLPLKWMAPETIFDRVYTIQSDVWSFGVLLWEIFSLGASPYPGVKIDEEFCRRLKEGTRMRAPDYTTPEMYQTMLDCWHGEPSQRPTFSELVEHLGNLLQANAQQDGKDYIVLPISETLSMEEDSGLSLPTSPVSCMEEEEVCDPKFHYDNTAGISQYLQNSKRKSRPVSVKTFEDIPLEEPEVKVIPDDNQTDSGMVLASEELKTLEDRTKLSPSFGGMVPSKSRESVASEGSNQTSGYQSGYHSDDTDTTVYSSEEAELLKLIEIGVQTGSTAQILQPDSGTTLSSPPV

M14 = experiment: NCI-60 SRB growth inhibition, one-dose and five-dose; format: cell-based; conditions: Homo sapiens; for GI50: M14; for inhibition at 10 µM: M14, read-out: percent growth inhibition
Renal cancer cell lines = experiment: NCI-60 SRB growth inhibition, subpanel; format: cell-based, human; conditions: Homo sapiens, read-out: GI50 MG-MID
Leukaemia cell lines = experiment: NCI-60 SRB growth inhibition, subpanel; format: cell-based, human; conditions: Homo sapiens, read-out: GI50 MG-MID

CC(=O)Nc1ccc(/C=C/C(=O)c2cccc(NCc3ccc(CO)cc3)c2)cc1 [Compound 5j, (E)-N-(4–(3-(3-((4-(hydroxymethyl)benzyl)amino)phenyl)-3-oxoprop-1-en-1-yl)phenyl) acetamide]
GI50 (UACC-257): 11.7 µM
inhibition at 10 µM (UACC-257): 135%
GI50 (ACHN): 10.3 µM
inhibition at 10 µM (ACHN): 155%
GI50 (SNB-75): 11.9 µM
inhibition at 10 µM (SNB-75): 18.2%
GI50 (MDA-MB-231/ATCC): 6.79 µM
GI50 (Colon cancer cell lines): 7.35 µM
GI50 (HT29): 6.06 µM
inhibition at 10 µM (HT29): 180%
GI50 (SF-295): 12.4 µM
inhibition at 10 µM (SF-295): 79.5%
GI50 (SK-OV-3): 16.3 µM
inhibition at 10 µM (SK-OV-3): 4.73%
GI50 (NCI-H460): 13.4 µM
inhibition at 10 µM (NCI-H460): 148%
GI50 (NCI-H322M): 14.4 µM
inhibition at 10 µM (NCI-H322M): 38.8%
GI50 (NCI/ADR-RES): 16.8 µM
inhibition at 10 µM (NCI/ADR-RES): 126%
GI50 (786-0): 14.1 µM
inhibition at 10 µM (786-0): 186%
GI50 (NSCLC cell lines): 13.9 µM
GI50 [1]: 8.67 µM
GI50 (RPMI-8226): 2840 nM
inhibition at 10 µM (RPMI-8226): 134%
GI50 (TK-10): 16.1 µM
inhibition at 10 µM (TK-10): 95.1%
inhibition at 10 µM (SN12C): 149%
GI50 (UO-31): 10.7 µM
GI50 (UACC-62): 10.8 µM
inhibition at 10 µM (UACC-62): 156%
GI50 (Breast cancer cell lines): 10.1 µM
GI50 (Melanoma cell lines): 11.5 µM
GI50 (SW-620): 4270 nM
inhibition at 10 µM (SW-620): 157%
GI50 at 48 h [2]: > 100 µM
Safety index [3]: >1
GI50 (NCI-H23): 13.9 µM
inhibition at 10 µM (NCI-H23): 95.9%
GI50 [4]: 12.4 µM
GI50 (CNS cancer cell lines): 10.1 µM
IC50 (Human VEGFR-2): 820 ± 16 nM
GI50 (M14): 14.3 µM
inhibition at 10 µM (M14): 146%
GI50 (Renal cancer cell lines): 13.3 µM
GI50 (Leukaemia cell lines): 5.36 µM

COc1ccc(CNc2cccc(C(=O)/C=C/c3cccnc3)c2)cc1OC [Compound 5c, (E)-1–(3-((3,4-dimethoxybenzyl)amino)phenyl)-3-(pyridin-3-yl)prop-2-en-1-one]
GI50 (UACC-257): 12.5 µM
inhibition at 10 µM (UACC-257): 34%
GI50 (ACHN): 3.95 µM
inhibition at 10 µM (ACHN): 132%
GI50 (SNB-75): 12.9 µM
inhibition at 10 µM (SNB-75): 34.2%
GI50 (MDA-MB-231/ATCC): 2.96 µM
inhibition at 10 µM (MDA-MB-231/ATCC): 94.5%
GI50 (Colon cancer cell lines): 4.45 µM
GI50 (HT29): 4.38 µM
inhibition at 10 µM (HT29): 178%
GI50 (SF-295): 10.4 µM
inhibition at 10 µM (SF-295): 53.7%
GI50 (SK-OV-3): 16.6 µM
inhibition at 10 µM (SK-OV-3): 41.8%
GI50 (NCI-H460): 5.22 µM
inhibition at 10 µM (NCI-H460): 69%
GI50 (NCI-H322M): 14.8 µM
inhibition at 10 µM (NCI-H322M): 14.2%
GI50 (NCI/ADR-RES): 2.96 µM
GI50 (786-0): 3.68 µM
inhibition at 10 µM (786-0): 133%
GI50 (NSCLC cell lines): 11.2 µM
GI50 [1]: 10.2 µM
GI50 (RPMI-8226): 2140 nM
inhibition at 10 µM (RPMI-8226): 99.7%
GI50 (TK-10): 8.14 µM
inhibition at 10 µM (TK-10): 23.9%
GI50 (SN12C): 11.8 µM
inhibition at 10 µM (SN12C): 83.7%
GI50 (UO-31): 10.5 µM
inhibition at 10 µM (UO-31): 65%
GI50 (UACC-62): 10.5 µM
inhibition at 10 µM (UACC-62): 61.1%
GI50 (Breast cancer cell lines): 5.96 µM
GI50 (Melanoma cell lines): 7.75 µM
GI50 (SW-620): 2310 nM
inhibition at 10 µM (SW-620): 177%
GI50 at 48 h [2]: > 100 µM
Safety index [3]: >1
GI50 (NCI-H23): 1.99 µM
inhibition at 10 µM (NCI-H23): 73.6%
GI50 [4]: 8.65 µM
GI50 (CNS cancer cell lines): 9.11 µM
IC50 (Human VEGFR-2): 960 ± 12 nM
GI50 (M14): 3.82 µM
inhibition at 10 µM (M14): 146%
GI50 (Renal cancer cell lines): 9.08 µM
GI50 (Leukaemia cell lines): 2.6 µM

Cc1ccc(CNc2cccc(C(=O)/C=C/c3cccnc3)c2)cc1 [Compound 5a, (E)-1–(3-((4-methylbenzyl)amino)phenyl)-3-(pyridin-3-yl)prop-2-en-1-one]
GI50 (UACC-257): 14.4 µM
inhibition at 10 µM (UACC-257): 39.6%
GI50 (ACHN): 14 µM
inhibition at 10 µM (ACHN): 130%
GI50 (SNB-75): 13.1 µM
inhibition at 10 µM (SNB-75): 46.6%
GI50 (MDA-MB-231/ATCC): 11.3 µM
inhibition at 10 µM (MDA-MB-231/ATCC): 110%
GI50 (Colon cancer cell lines): 8.84 µM
GI50 (HT29): 14.1 µM
inhibition at 10 µM (HT29): 159%
GI50 (SF-295): 14 µM
inhibition at 10 µM (SF-295): 58.9%
GI50 (SK-OV-3): 16.1 µM
inhibition at 10 µM (SK-OV-3): 60.2%
GI50 (NCI-H460): 12.9 µM
inhibition at 10 µM (NCI-H460): 42%
GI50 (NCI-H322M): 15.7 µM
inhibition at 10 µM (NCI-H322M): 19.6%
GI50 (NCI/ADR-RES): 7.54 µM
GI50 (786-0): 15.5 µM
inhibition at 10 µM (786-0): 126%
GI50 (NSCLC cell lines): 13.7 µM
GI50 [1]: 13.8 µM
GI50 (RPMI-8226): 1760 nM
inhibition at 10 µM (RPMI-8226): 98.6%
GI50 (TK-10): 14.4 µM
inhibition at 10 µM (TK-10): 18.9%
GI50 (SN12C): 12.6 µM
inhibition at 10 µM (SN12C): 118%
GI50 (UO-31): 11.7 µM
inhibition at 10 µM (UO-31): 47.5%
GI50 (UACC-62): 11.1 µM
inhibition at 10 µM (UACC-62): 58.4%
GI50 (Breast cancer cell lines): 9.21 µM
GI50 (Melanoma cell lines): 10.6 µM
GI50 (SW-620): 2030 nM
inhibition at 10 µM (SW-620): 173%
GI50 at 48 h [2]: > 100 µM
Safety index [3]: >1
GI50 (NCI-H23): 12.2 µM
inhibition at 10 µM (NCI-H23): 47.9%
GI50 [4]: 11.4 µM
GI50 (CNS cancer cell lines): 13.2 µM
IC50 (Human VEGFR-2): 2000 ± 23 nM
GI50 (M14): 13.1 µM
inhibition at 10 µM (M14): 92.7%
GI50 (Renal cancer cell lines): 13.3 µM
GI50 (Leukaemia cell lines): 3.34 µM

CC(=O)Nc1ccc(/C=C/C(=O)c2cccc(NCc3ccc4oc(=O)ccc4c3)c2)cc1 [Compound 5k, (E)-N-(4–(3-oxo-3–(3-(((2-oxo-2H-chromen-6-yl)methyl)amino)phenyl)prop-1-en-1-yl)phenyl)acetamide]
inhibition at 10 µM (UACC-257): 45.1%
inhibition at 10 µM (ACHN): 34.7%
inhibition at 10 µM (SNB-75): 25.4%
inhibition at 10 µM (HT29): 15.6%
inhibition at 10 µM (SF-295): 36.8%
inhibition at 10 µM (SK-OV-3): 3.88%
inhibition at 10 µM (NCI-H460): 22.7%
inhibition at 10 µM (NCI-H322M): 15.3%
inhibition at 10 µM (NCI/ADR-RES): 68.9%
inhibition at 10 µM (786-0): 24.2%
inhibition at 10 µM (RPMI-8226): 80.5%
inhibition at 10 µM (TK-10): 25.8%
inhibition at 10 µM (SN12C): 29.5%
inhibition at 10 µM (UACC-62): 67.5%
inhibition at 10 µM (SW-620): 52.2%
inhibition at 10 µM (NCI-H23): 38.6%
inhibition at 10 µM (M14): 30.6%
